Tests used:
[1] = tested on: human corneal epithelial (HCE) cells; experiment: In vitro genotoxicity, alkaline comet assay; format: cell-based; details: 24 h, 0.8 mg/mL CONV, 0.4 mg/mL OPT3, 300 μM OL, 100 μM HT, 5 μM + 50 μM OL+HT
Excerpt: (§1) According to the ICH guideline S2 (R1), comet assay evaluates the cell DNA damage under a neutral or alkaline electrophoretic field. This leads to the separation between intact and damaged cellular DNA, creating the typical “comet tail” visible from a microscope. By measuring this tail, the extent of the DNA damage can be estimated. In this study, we applied alkaline electrophoresis, because it is more sensitive and can detect smaller amounts of DNA damages, including single and double-stranded DNA breaks, alkali labile DNA adducts, and most oxidative DNA damage.
(§2) Two different human ocular surface cell lines were selected for this assay: HCE and the IM-ConjEpi. The two selected OP extracts (CONV and OPT3) were tested for their in vitro genotoxicity on both cell lines, together with the two principal pure olive compounds OL and HT, alone or in combination (OL+HT). For each compound or extract, the maximum allowable concentration was selected to be tested, based on the results of their in vitro cytotoxicity on the same cell lines, as previously described.
(§3) HCE is an immortalized human corneal epithelial cell line, kindly offered by Dr. Arto Urti (University of Helsinki, Finland). It was cultured in DMEM/F-12 + GlutaMax supplemented with 10% fetal bovine serum, 10 ng/mL human epithelial growth factor, 5 μg/mL human insulin and antibiotics (100 U/mL penicillin + 0.1 mg/mL streptomycin). IM-ConjEpi was supplied by Innoprot (Derio, Spain. Ref. P10870-IM) and is an SV40- Large T Antigen immortalized human conjunctival epithelial cell line. It was cultured in DMEM/F-12 + GlutaMax supplemented with 10% fetal bovine serum, 10 ng/mL human epithelial growth factor, 1 μg/mL bovine insulin and antibiotics ([…]). HCE cell line was used from passage 25 to 35, while IM-ConjEpi from passage 10 to 20.
(§4) The cells were incubated at 37 °C and 5:95 = CO2:air atmosphere ratio, while their medium was changed every second day. Observations through a phase-contrast microscope were carried out daily.
(§5) For the in vitro tests, HT, OL, CONV, and OPT3 were dissolved in culture medium (DMEM/F-12 + GlutaMax, without any supplement) the day of the experiment. As previously described, CONV was produced by conventional solid–liquid extraction using freeze-dried material without any further pretreatment. OPT3 was generated by PLE extraction using freeze-dried material previously defatted with scCO2. The part of the extracts not dissolved to the culture medium was filtered through a 0.20 μm polyvinylidene fluoride sterile filter. The in vitro concentrations were selected according to a previous study, which described the maximum allowable non-toxic concentration of HT, OL, CONV, and OPT3 on the two ocular surface cell lines used. […]

[2] = tested on: immortalized human conjunctival epithelial (IM-ConjEpi) cells; experiment: In vitro genotoxicity, alkaline comet assay; format: cell-based; details: 24 h, 0.8 mg/mL CONV, 0.4 mg/mL OPT3, 300 μM OL, 100 μM HT, 5 μM + 50 μM OL+HT
Excerpt: as §1, §2, §3, §4, §5

[3] = Long-term storage stability of aqueous solutions (CPMP/ICH/2736/99), HPLC-DAD relative quantification; format: physicochemical; details: for kobs (first-order degradation rate constant) / t1/2 (half-time period) / tlag (lag time): pure aqueous solution; for stability as pure solution: first 30 days
Description: According to the guidance CPMP/ICH/2736/99, aqueous solutions of HT, OL, OPT3 extract, and CONV extract were stored at four different conditions of temperature (ambient, refrigerated, […], and intermediate) and humidity. The conditions were: T = 5 ± 3 °C (with no humidity), T = 25 ± 2 °C (with 60 ± 5% RH), T = 30 ± 2 °C (with 65 ± 5% RH) and T = 40 ± 2 °C (with 75 ± 5% RH) up to a final duration of 6 months. For OPT3, HT was relatively quantified as % with respect to the concentration (C0) at the initial time (t0), while for CONV both % HT and % OL content were calculated similarly. […] The stability of up to 6 months is presented in the Figure S1 of the Supplementary Material. […] The lag time (tlag) represents the time that the concentration of the compound remains constant and, if present, is determined as the intercept of the initial degradation time with the initial concentration value. The half-life period (t1/2) is calculated from Equation (2). The degradation constant (kobs), the t1/2, and the time lag (tlag) together with the correlation coefficient (R^2) for each compound and storage condition are presented in Table 5. ln(C0/Ct) = kobs(t - tlag)(1) t1/2 = ln(2)/k + tlag(2) The quantitative determination of HT, TY, and OL was performed by an HPLC-DAD system: Waters e2695 separation module with an autosampler (20 μL injection volume) and a quaternary pump, coupled with Waters 2998 photodiode array detector set at 280 nm (Waters®, Dublin, Ireland). A C18 Mediterranean Sea column (250 × 4.6 mm, 5 μm) (Teknokroma Analítica S.A., Barcelona, Spain) at 35 °C connected with an OptiGuard 1 mm guard column (Sigma-Aldrich, St. Louis, MO, USA) were used. The gradient method, together with the eluents and the elution program used, were selected according to […] et al.. Calibration curves for OL (range: 12.5-1250 mg/L, linearity: […] R^2 = 0.9969) were prepared, using standard solutions of the compounds in DMSO, and analyzed in the same conditions as the samples. Compounds in the extracts were identified by comparing the retention time and the UV spectra of the samples with those of the standard solutions, while MS spectra were also used to confirm identification (see 3.7.1. for experimental conditions). […] Samples and calibration curves of standard solutions were analyzed within the same day. For the 6-months storage stability, relative quantification was performed with respect to the initial quantity t0 of each analyte. For data acquisition and processing, Empower® 3 software (Waters®, Dublin, Ireland) was used. Briefly, all compounds and extracts were dissolved in Milli-Q water, as high mineralization could increase the degradation of these substances. Additionally, according to the bibliography, lower concentrations could accelerate the decomposition of a compound. […] All solutions were filtered through a 0.20 μm polyvinylidene fluoride filter. […] To fix the desired humidity for each temperature, appropriate salts have been used according to the bibliography. […] The vials were placed in big glass containers, together with a sufficient quantity of each salt. Then, they were closed airtight and left in different rooms of controlled temperature and protected from light for 6 months. […] For CONV, HT and OL content were measured, while for OPT3 only HT content was calculated due to the lack of OL in this extract. All samples were analyzed in triplicate and the results are expressed as mean of the percentage with respect to the initial concentration t0 ± SD.

Which “Genotoxic effect (%TDNA) versus control group” value [1] does the source give for OCCc1ccc(O)c(O)c1 [HT, hydroxytyrosol] here?
Its value is “No statistically significant differences”.

What about the “Genotoxic effect (%TDNA) versus control group” value [2] of the same compound?
The value was “No statistically significant differences”.

What about the “stability as standard solution” value ([3]; 5 °C, first month) of the same compound?
The value was “stable at a high percentage for the entire month”.

What about the “time from which the standard solution is completely degraded” value ([3]; 25 °C) of the same compound?
Its value is “fourth month”.

What about the “time from which the standard solution is completely degraded” value ([3]; 30 °C and 40 °C) of the same compound?
The value was “third month”.

What about the “kobs (first-order degradation rate constant)” value (from here on “kobs”) ([3]; T = 5 °C/no humidity) of the same compound?
Its value is 0.0069 day⁻¹.

And the “t1/2 (half-time period)” value ([3]; T = 5 °C/no humidity)?
The value was 101.5 days.

And the “tlag (lag time)” value ([3]; T = 5 °C/no humidity)?
Its value is 1.0 days.

And the “kobs” value ([3]; T = 25 °C/60% RH)?
Its value is 0.0337 day⁻¹.

What about the “t1/2 (half-time period)” value ([3]; T = 25 °C/60% RH) of the same compound?
The value was 21.6 days.

What about the “tlag (lag time)” value ([3]; T = 25 °C/60% RH) of the same compound?
The value was 1.0 days.

And the “kobs” value ([3]; T = 30 °C/65% RH)?
Its value is 0.1068 day⁻¹.

And the “t1/2 (half-time period)” value ([3]; T = 30 °C/65% RH)?
Its value is 6.5 days.

And the “tlag (lag time)” value ([3]; T = 30 °C/65% RH)?
The value was 0 days.

What about the “kobs” value ([3]; T = 40 °C/75% RH) of the same compound?
Its value is 0.1234 day⁻¹.

And the “t1/2 (half-time period)” value ([3]; T = 40 °C/75% RH)?
The value was 5.6 days.

And the “tlag (lag time)” value ([3]; T = 40 °C/75% RH)?
The value was 0 days.

For C/C=C1/[C@H](O[C@@H]2O[C@H](CO)[C@@H](O)[C@H](O)[C@H]2O)OC=C(C(=O)OC)[C@H]1CC(=O)OCCc1ccc(O)c(O)c1 [OL, oleuropein], which “Genotoxic effect (%TDNA) versus control group” value [1] is on record?
The value was “No statistically significant differences”.

What about the “Genotoxic effect (%TDNA) versus control group” value [2] of the same compound?
The value was “No statistically significant differences”.

And the “stability as pure solution” value ([3]; 5 °C or 25 °C)?
The value was “remains at high levels”.

And the “stability as standard solution” value ([3]; 25 °C or below)?
Its value is “stable for up to 1 month”.

What about the half-life at 113 mg/L ([3]; aqueous solution of the pure compound, pure solution, temperature above 30 °C, read-out: t1/2 (time to reduce the concentration to half of the initial value) (converted)) of the same compound?
The half-life at 113 mg/L was about 72 h.

And the “kobs” value ([3]; T = 5 °C/no humidity)?
Its value is 0.0099 day⁻¹.

And the “t1/2 (half-time period)” value ([3]; T = 5 °C/no humidity)?
The value was 81.3 days.

What about the “tlag (lag time)” value ([3]; T = 5 °C/no humidity) of the same compound?
The value was 11.3 days.

What about the “kobs” value ([3]; T = 25 °C/60% RH) of the same compound?
Its value is 0.0065 day⁻¹.

What about the “t1/2 (half-time period)” value ([3]; T = 25 °C/60% RH) of the same compound?
The value was 116.5 days.

And the “tlag (lag time)” value ([3]; T = 25 °C/60% RH)?
The value was 9.9 days.

What about the “kobs” value ([3]; T = 30 °C/65% RH) of the same compound?
The value was 0.4022 day⁻¹.

And the “t1/2 (half-time period)” value ([3]; T = 30 °C/65% RH)?
The value was 1.7 days.

What about the “tlag (lag time)” value ([3]; T = 30 °C/65% RH) of the same compound?
Its value is 0 days.

And the “kobs” value ([3]; T = 40 °C/75% RH)?
Its value is 0.3658 day⁻¹.

And the “t1/2 (half-time period)” value ([3]; T = 40 °C/75% RH)?
Its value is 1.9 days.

What about the “tlag (lag time)” value ([3]; T = 40 °C/75% RH) of the same compound?
Its value is 0 days.

What about the “time the compound remains stable” value ([3]; pure solution, temperature values below 25 °C) of the same compound?
The value was “approximately 11 days”.

What about the “final content compared to t0” value ([3]; standard solution, 5 °C and 25 °C, 6 months) of the same compound?
Its value is “ca. 35%”.

And the “stability as pure solution” value ([3]; temperature values above 30 °C)?
Its value is “highly unstable”.

Source: PMC8512844, “Olive Pomace Phenolic Compounds Stability and Safety Evaluation: From Raw Material to Future Ophthalmic Applications” (Molecules, 2021)
